From PubChem BioAssay AID449756 (Broad Institute, 2010)
Records with an inconclusive call do not appear.

System: INS-1E rat beta cells, cytokine apoptosis rescue, ATP luminescence 48 h
Assay: beta cell apoptosis inhibitors, cytokine rescue, dose response, luminescence, retest (AID 449756)

Compound | AC50 [µM]
C#CCOCCOCCOCCNc1nc(N2CCN(C(=O)CCCCCCCCCCNC(=O)[C@H]([C@@H](C)CC)n3cc(CCCCN=C(N)N)nn3)CC2)nc(N2CCN(C(=O)CCCCCCCCCCNC(=O)[C@H](CO)n3cc(CCCCCN)nn3)CC2)n1 | 6.94
C#CCOCCOCCOCCNc1nc(N2CCN(C(=O)CCCCCCCCCCNC(=O)[C@H](CCCCN)n3cc(CCO)nn3)CC2)nc(N2CCN(C(=O)CCCCCCCCCCNC(=O)[C@H](CCCCN)n3cc(C[C@@H](C)CC)nn3)CC2)n1 | 6.27
C#CCOCCOCCOCCNc1nc(N2CCN(C(=O)CCCCCCCCCCNC(=O)[C@H]([C@@H](C)CC)n3cc(CCCCN=C(N)N)nn3)CC2)nc(N2CCN(C(=O)CCCCCCCCCCNC(=O)[C@H](CCCCN)n3cc(C)nn3)CC2)n1 | 4.96
C#CCOCCOCCOCCNc1nc(N2CCN(C(=O)CCCCCCCCCCNC(=O)[C@H]([C@@H](C)CC)n3cc(CCCCCN)nn3)CC2)nc(N2CCN(C(=O)CCCCCCCCCCNC(=O)[C@@H]([C@H](C)O)n3cc(C)nn3)CC2)n1 | 5.76
C#CCOCCOCCOCCNc1nc(N2CCN(C(=O)CCCCCCCCCCNC(=O)[C@H](CCCCN)n3cc(C)nn3)CC2)nc(N2CCN(C(=O)CCCCCCCCCCNC(=O)[C@@H]([C@H](C)CC)n3cc(CCCCCN)nn3)CC2)n1 | 5.59
C#CCOCCOCCOCCNc1nc(N2CCN(C(=O)CCCCCCCCCCNC(=O)[C@H](CCCCN)n3cc(C)nn3)CC2)nc(N2CCN(C(=O)CCCCCCCCCCNC(=O)[C@H](CCCN=C(N)N)n3cc(C[C@@H](C)CC)nn3)CC2)n1 | 6.66
C#CCOCCOCCOCCNc1nc(N2CCN(C(=O)CCCCCCCCCCNC(=O)[C@H]([C@@H](C)CC)n3cc(CCCCCN)nn3)CC2)nc(N2CCN(C(=O)CCCCCCCCCCNC(=O)[C@H]([C@@H](C)CC)n3cc(CCCCN=C(N)N)nn3)CC2)n1 | 4.66
C#CCOCCOCCOCCNc1nc(N2CCN(C(=O)CCCCCCCCCCNC(=O)Cn3cc(CCCCCN)nn3)CC2)nc(N2CCN(C(=O)CCCCCCCCCCNC(=O)[C@H]([C@@H](C)CC)n3cc(CCCCN=C(N)N)nn3)CC2)n1 | 6.89
C#CCOCCOCCOCCNc1nc(N2CCN(C(=O)CCCCCCCCCCNC(=O)[C@@H](CCSC)n3cc(CCO)nn3)CC2)nc(N2CCN(C(=O)CCCCCCCCCCNC(=O)[C@H]([C@@H](C)CC)n3cc(CCCCCN)nn3)CC2)n1 | 3.98
C=C(C=O)C[C@@H]1C[C@H](O)C2OC3C[C@]4(C)OC5/C=C\CC6OC7C(CC=CCC6OC5CCCC4OC3CC2O1)OC1CC2OC3CC(=O)OC3C[C@@H](C)C[C@@]2(C)OC1C[C@@H]7C (stereo not given in full) | 2.17
